Data on 16 compounds can be found in US4628059A, “Dopamine-β-hydroxylase inhibitors” (SmithKlein Beckman Corporation, priority 1985, dated 1986).

One data set has as its system DBH. Particulars: literature, cited from earlier work.
Data set [1] deals with T1, dopamine-β-hydroxylase (DBH) (Bos taurus, UniProt P15101).
T1 sequence (P15101 1-610): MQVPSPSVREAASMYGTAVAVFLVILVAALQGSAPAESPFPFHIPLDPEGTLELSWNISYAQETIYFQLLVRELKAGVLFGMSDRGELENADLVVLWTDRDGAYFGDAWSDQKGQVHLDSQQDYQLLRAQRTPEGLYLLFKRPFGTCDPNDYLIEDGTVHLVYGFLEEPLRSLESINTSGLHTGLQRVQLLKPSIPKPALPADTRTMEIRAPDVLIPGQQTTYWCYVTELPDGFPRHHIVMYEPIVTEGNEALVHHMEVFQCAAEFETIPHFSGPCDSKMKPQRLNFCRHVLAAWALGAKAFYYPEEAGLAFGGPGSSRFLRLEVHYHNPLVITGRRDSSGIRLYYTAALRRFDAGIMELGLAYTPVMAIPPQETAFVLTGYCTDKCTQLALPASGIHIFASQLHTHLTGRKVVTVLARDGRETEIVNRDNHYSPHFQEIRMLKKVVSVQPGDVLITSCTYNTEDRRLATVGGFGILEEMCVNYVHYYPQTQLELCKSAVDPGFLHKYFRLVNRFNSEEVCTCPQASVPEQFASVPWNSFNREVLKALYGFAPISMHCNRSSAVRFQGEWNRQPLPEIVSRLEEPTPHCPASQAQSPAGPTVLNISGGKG
As to the kind of experiment: in vitro DBH inhibition (conversion of tyramine to octopamine, spectrophotometric at 330 nm). Format: biochemical. The method, then: Because the compounds of Formulae I and II inhibit DBH activity, they have therapeutic value as diuretic, natriuretic, cardiotonic, antihypertensive and vasodilator agents, as well as antiulcerogenic agents. Listed in Table I are the compounds of the invention and compounds included in the pharmaceutical compositions of the invention and useful in the methods of the invention that were tested for in vitro DBH inhibition by a standard procedure for assaying conversion of tyramine to octopamine in the presence of DBH. J. J. Pisano, et al., Biochem. Biophys. Acta; 43, 566-568 (1960). Octopamine was assayed following sodium periodate oxidation to p-hydroxybenzaldehyde by measuring spectrophotometric absorbance at 330 nm. In Table I, inhibition is given in molar concentration of compound at which DBH activity was halved (IC50). Melting points (mp) are given in °C.

Data set [2] has as its system peripheral dopamine (DA) and norepinephrine (NE) levels. As to the kind of experiment: effect in vivo on peripheral dopamine (DA) and norepinephrine (NE) levels. Also on record: species or system spontaneously hypertensive rats. The note with it: oral, two doses approx. 18 h apart, sacrificed about 2 h after second dose, fusaric acid 50 mg/kg; for DA / NE: average of groups of five; for DA: control (saline) 0.314; for DA / DA/NE Ratio: * p <.001 for both compounds; for NE: control (saline) 9.98; for DA/NE Ratio: control (saline) 0.0314. How it is done: One of the compounds of the invention was tested for its effect in vivo on peripheral dopamine (DA) and norepinephrine (NE) levels substantially by the procedure of DaPrada and Zurcher, Life Sciences, 19, 1161, (1976). Groups of five spontaneously hypertensive rats were dosed orally, twice, the second dose approximately 18 hours after the first, and were sacrificed about 2 hours after the second dose.

The conditions of data set [3]: literature; cited from earlier work.
The conditions of data set [4]: Ehrreich et al., literature; cited from earlier work.
For data set [5], the system named is spontaneously hypertensive rats. As to the kind of experiment: mean arterial blood pressure in spontaneously hypertensive rats. Particulars: 50 mg/kg intraperitoneally, monitored for 260 minutes, tail artery cannulae. It counts as in vivo. The method, then: Further, spontaneously hypertensive rats were dosed with a suspension or solution of 4-(3'-fluorobenzyl)-1,2,4-triazole-3-thiol at a dose of 50 mg/kg intraperitoneally, and mean arterial blood pressure was monitored for 260 minutes using indwelling cannulae positioned in the tail arteries.

The mark [6] stands for this setting: in vitro, tyramine to octopamine conversion, read-out: IC50 (molar concentration of compound at which DBH activity was halved).

Where two headings read alike, the source gives them in different places.

In the case of `O=C(O)c1ccc(CCCCCl)cn1` [5-(4-chlorobutyl)picolinic acid], the “DBH inhibition (in words)” value in the data set on DBH is reported as “inhibit DBH”. As to `Fc1cc(F)cc(Cn2cnnc2S)c1` [4-(3',5'-difluorobenzyl)-1,2,4-triazole-3-thiol], the IC50 in data set [1] (setting [6]) was determined as 1 µM.

For the compound `CCCCc1ccc(C(=O)O)nc1` [Fusaric acid], in data set [1], the IC50 amounted to 0.8 µM. Moreover, in data set [2], the DA came out at 0.715 µg/g, the NE stood at 8.19 µg/g and the “DA/NE Ratio” value was determined as 0.0875. Also, in data set [3], the toxicity result is “hepatotoxic”. As to `NNCc1ccccc1` [benzylhydrazine], the “DBH inhibition (in words)” value in the data set with DBH was “apparently act as competitive inhibitors”. Take `COc1c(F)cc(Cn2cnnc2S)cc1F` [4-(3',5'-difluoro-4'-methoxybenzyl)-1,2,4-triazole-3-thiol]: the IC50 in data set [1] (setting [6]) turned out to be 19 µM.

As to `CCCC(=O)c1ccc(C(=O)O)nc1` [5-butyroylpicolinic acid], the “DBH inhibition (in words)” value in the data set on DBH was “inhibit DBH”. As to `O=C(O)c1ccc(CCC(Br)CBr)cn1` (stereo not shown) [5-(3,4-dibromobutyl)picolinic acid], the “DBH inhibition (in words)” value with DBH was “DBH inhibitors”.

As for `CCCCc1ccc(C(N)=O)nc1` [Bupicomide, 5-(n-butyl)picolinamine], the “DBH inhibition (in words)” value in the data set on DBH is on record as “DBH inhibitor”. The antihypertensive activity entry in data set [4] is reported as “antihypertensive activity”.

In the case of `NOCc1ccccc1` [Benzyloxyamine, benzyloxyamine], the “DBH inhibition (in words)” value with DBH is listed as “apparently act as competitive inhibitors”.

Take `CN(C)C(=S)SCc1ccc(C(=O)O)nc1` [5-(dimethyldithiocarbamoylmethyl)picolinic acid]: the “DBH inhibition (in words)” value in the data set on DBH is “DBH inhibitors”.

In the case of `Nc1ccc(C(=O)O)nc1` [5-aminopicolinic acid], the “DBH inhibition (in words)” value in the data set with DBH is “inhibit DBH”.

Take `NNc1ccc(C(=O)O)nc1` [5-hydrazinopicolinic acid]: the “DBH inhibition (in words)” value in the data set with DBH is “inhibit DBH”. Take phenylpicolinic acid: in the data set on DBH (Runti et al.), the “DBH inhibitory activity relative to fusaric acid” value was “twice the inhibitory activity of fusaric acid”.

For `Fc1cccc(Cn2cnnc2S)c1` [4-(3'-fluorobenzyl)-1,2,4-triazole-3-thiol], in data set [1] (setting [6]), the IC50 turned out to be 2.7 µM. In data set [2], the DA was determined as 0.958 µg/g, the NE was found to be 8.46 µg/g and the “DA/NE Ratio” value is on record as 0.114. The “mean arterial blood pressure reduction compared to vehicle-treated controls” value in data set [5] was “statistically significant blood pressure reductions at 60, 140, 160, 200, and 240 minutes”. Consider `Oc1c(F)cc(Cn2cnnc2S)cc1F` [4-(3',5'-difluoro-4'-hydroxybenzyl)-1,2,4-triazole-3-thiol], for which, in data set [1] (setting [6]), the IC50 came out at 0.02 µM. As for `Sc1nncn1Cc1ccccc1` [4-benzyl-1,2,4-triazole-3-thiol], in data set [1] (setting [6]), the IC50 came to 24 µM.
